SMILES strings stand for the structures.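 Compound exposure: 48 hours, 5 concentrations, 96-well plates. At the GI50, growth is halved. TGI denotes the concentration required for complete inhibition of growth.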 A value given as a limit tells only on which side of the number the result lay.

Among the test systems are SW-620 colon; 786-0 renal; SN12C renal; SNB-75 CNS; HL-60(TB) leukemia; RPMI-8226 leukemia; HT29 colon; NCI-H522 lung; MDA-MB-435.
Experiment in all cases: inhibition of tumour cell growth, NCI panel, 48 h

As for `Nc1nc(Cl)cc(NCCCCCNc2cc(Cl)nc(N)n2)n1`, the TGI in the assay on SW-620 colon, in the assay with 786-0 renal, in the assay on SN12C renal, in the assay with SNB-75 CNS, in the assay on HL-60(TB) leukemia and in the assay on RPMI-8226 leukemia was > 100 µM throughout. In addition, the TGI with HT29 colon and in the assay with NCI-H522 lung was > 100 µM throughout.
Regarding `N.N.N.N.O=NN1CCCCCC1(P(=O)([O-])[O-])P(=O)([O-])[O-].[Pt+4].[Pt+4]`, the GI50 in the assay with SW-620 colon, with 786-0 renal, in the assay with SN12C renal, in the assay with SNB-75 CNS, in the assay on HL-60(TB) leukemia and in the assay on RPMI-8226 leukemia was > 100 µM throughout. The GI50 with HT29 colon and in the assay with NCI-H522 lung was > 100 µM throughout. In addition, the TGI in the assay with SW-620 colon, in the assay with 786-0 renal, in the assay with SN12C renal, in the assay on SNB-75 CNS, with HL-60(TB) leukemia and with RPMI-8226 leukemia was > 100 µM throughout. Besides, the TGI in the assay on HT29 colon and in the assay on NCI-H522 lung was > 100 µM throughout.
For `COc1cccc(NC(=O)C(C)(C)C)c1C=O`, the TGI in the assay on SW-620 colon, with 786-0 renal, with SN12C renal, in the assay on SNB-75 CNS, in the assay with HL-60(TB) leukemia and in the assay with RPMI-8226 leukemia was > 100 µM throughout. Besides, the TGI in the assay with HT29 colon and in the assay with NCI-H522 lung was > 100 µM throughout.
`O=Nc1ccc(O)c2ccccc12`: the GI50 with SW-620 colon is 1.82 µM; in the assay with 786-0 renal, 4.1 µM; with MDA-MB-435, 0.33 µM; in the assay on SN12C renal, 1.38 µM; with SNB-75 CNS it was 1.44 µM; in the assay on RPMI-8226 leukemia, 2.4 µM. The figures for the GI50 with HT29 colon and in the assay on NCI-H522 lung were 1.86 µM and 1.6 µM, respectively. In addition, the TGI in the assay with SW-620 colon is 3.6 µM; with 786-0 renal, 12.6 µM; in the assay on MDA-MB-435, 1.1 µM; with SN12C renal, 3.22 µM; in the assay with SNB-75 CNS it was 3.02 µM; in the assay with RPMI-8226 leukemia, 7.58 µM. The TGI in the assay with HT29 colon was determined as 5.71 µM; with NCI-H522 lung it was 3.48 µM.
On to `CC1=C(C(=O)Nc2ccccc2)C(c2ccc([N+](=O)[O-])cc2)C(C(=O)Nc2ccccc2)=C(C)N1`, for which the TGI in the assay on SW-620 colon came to 38.5 µM; with 786-0 renal, 59 µM; in the assay on SN12C renal it was 79.3 µM; in the assay on SNB-75 CNS, 82.1 µM; with HL-60(TB) leukemia, 34.1 µM; in the assay with RPMI-8226 leukemia, 73.3 µM. Moreover, the TGI turned out to be 41.3 µM in the assay with HT29 colon and 63.8 µM in the assay with NCI-H522 lung.
Consider `COc1cc2c3c(c4ccc(OC)c(OC)c4c2cc1OC)CN1CCC[C@@H]1C3`, for which the TGI with SW-620 colon is > 47.7 µM; in the assay with 786-0 renal, 1.78 µM; with MDA-MB-435 it was 5.83 µM; in the assay with SN12C renal it was 18 µM; in the assay on SNB-75 CNS it was 0.0947 µM; with HL-60(TB) leukemia, 0.577 µM. In addition, the TGI in the assay on HT29 colon is 0.593 µM; in the assay on NCI-H522 lung it was 0.792 µM.
In the case of `O=C(NCCO)c1cc2c(cn1)[nH]c1ccccc12`, the TGI was > 100 µM in the assay with SW-620 colon; 33.7 µM in the assay on 786-0 renal; > 100 µM in the assay with SN12C renal; > 100 µM in the assay with SNB-75 CNS; > 100 µM in the assay on HL-60(TB) leukemia; > 100 µM with RPMI-8226 leukemia. Further, the TGI with HT29 colon and in the assay with NCI-H522 lung was > 100 µM each time.
With `C=CCCCn1ccc2ccccc21`, the TGI in the assay on SW-620 colon, with 786-0 renal, in the assay with SN12C renal, in the assay with SNB-75 CNS, in the assay with HL-60(TB) leukemia and with RPMI-8226 leukemia was > 100 µM each time. Besides, the TGI in the assay on HT29 colon and in the assay on NCI-H522 lung was > 100 µM throughout.
Consider `c1ccc(N=c2snc3scc(-c4ccccc4)n23)cc1`, for which the TGI in the assay with SW-620 colon is > 100 µM; in the assay on 786-0 renal it was > 100 µM; with SN12C renal, > 100 µM; in the assay on SNB-75 CNS, > 100 µM; with HL-60(TB) leukemia, > 100 µM; with RPMI-8226 leukemia, 86.7 µM. Also, the results for the TGI in the assay on HT29 colon and with NCI-H522 lung were > 100 µM and 38.4 µM, respectively.
For `Cc1ccc2c(c1)C(C)Cc1c(ncnc1-n1cnc3cc(C)ccc31)N2C` (configuration not stated), the GI50 in the assay with SW-620 colon is 0.0417 µM; with 786-0 renal it was 0.0371 µM; in the assay with SN12C renal it was 0.086 µM; in the assay with SNB-75 CNS, 0.0262 µM; in the assay with HL-60(TB) leukemia, 0.025 µM; in the assay on RPMI-8226 leukemia it was 0.0406 µM. The values for the GI50 in the assay on HT29 colon and in the assay on NCI-H522 lung were 0.0302 µM and 0.026 µM, respectively. Besides, the TGI in the assay on SW-620 colon came to 15.9 µM; with 786-0 renal, 12.5 µM; with SN12C renal, 16.3 µM; in the assay on SNB-75 CNS it was 13.4 µM; in the assay on HL-60(TB) leukemia, 0.0557 µM; in the assay with RPMI-8226 leukemia it was 3.89 µM. The TGI in the assay with HT29 colon came to 0.195 µM; in the assay on NCI-H522 lung, 0.0784 µM.
With `CCCCCCCCCCCCCCCCOCC(CN(C)CCN(C)C)OCCCCCCCCCCCCCCCC` (configuration not stated), the TGI in the assay on SW-620 colon, in the assay on 786-0 renal, in the assay on SN12C renal, in the assay on SNB-75 CNS, with HL-60(TB) leukemia and with RPMI-8226 leukemia was > 100 µM in each case. The TGI with HT29 colon and with NCI-H522 lung was > 100 µM in each case.
For the compound `O=C(O)C1=C(C(=O)Nc2ccccc2)C2C=CC1C2` (configuration not stated), the TGI with SW-620 colon, with 786-0 renal, in the assay on SN12C renal, in the assay on SNB-75 CNS, with HL-60(TB) leukemia and in the assay with RPMI-8226 leukemia was > 100 µM each time. In addition, the TGI in the assay on HT29 colon was > 100 µM.
On to `CC(=O)[O-].CC(=O)[O-].O=C(N/N=C/c1cc(Cl)cc(Cl)c1O)c1ccncc1.[Ni+2]`, for which the TGI with SW-620 colon was 83.5 µM; in the assay on 786-0 renal, > 100 µM; in the assay on SN12C renal it was > 100 µM; in the assay on SNB-75 CNS, > 100 µM; in the assay with HL-60(TB) leukemia it was 45.3 µM; with RPMI-8226 leukemia it was > 100 µM. In addition, the TGI in the assay on HT29 colon and with NCI-H522 lung was > 100 µM each time.

Values taken from PubChem BioAssay (NCI).
